Results reported in patent US9623123B2, “Fluorescent conjugated polymers with a bodipy-based backbone and uses thereof” (Michigan Technological University, priority 2008, dated 2017).

Columns and labels:
[1] = UV-visible absorption and fluorescence spectra, fluorescence quantum yields in solution; type: physicochemical; settings: for Quantum yield: methylene chloride solution
Procedure: ^1H NMR and ^13C NMR spectra were taken on a 400 MHz Varian Unity Inova spectrophotometer instrument. ^1H and ^13C NMR spectra were recorded in CDCl3, chemical shifts (δ) are given in ppm relative to solvent peaks (1H: δ 7.26; 13C: δ 77.3) as internal standard. UV spectra were taken on a Hewlett Packard 8452A Diode Array UV-visible spectrophotometer. Fluorescence spectra were recorded on a Spex Fluorolog 1681 0.22 m steady-state fluorometer. Fluorescence quantum yields of BODIPY dyes and polymers were measured in methylene chloride and DMF, and calculated by using fluorescein excited at 490 nm in 0.1 N NaOH as the reference absolute quantum efficiency (φn=85%). Molecular weights of the polymers were determined by gel permeation chromatography (“GPC”) by using a Waters Associates Model 6000A liquid chromatograph. Three American Polymer Standards Corp. Ultrastyragel columns in series with porosity indices of 10^3, 10^4, and 10^5 Å were used and housed in an oven thermostated at 30° C. Mobile phase was HPLC grade THF which was filtered and degassed by vacuum filtration through a 0.5 μm fluoropore filter prior to use. The polymers were detected by a Waters Model 440 ultraviolet absorbance detector at a wavelength of 254 nm and a Waters Model 2410 refractive index detector. Molecular weights were measured relative to polystyrene standards. An Enraf Nonius CAD-4 X-Ray diffractometer was used in the crystal structure determination. The windows program WinGX was used as the interface for the solution and refinement of the model. The data were first reduced and corrected for absorption using the psi-scans, and then solved using the program SIR2004. The model was refined using SHELXL97.
(§1) ^1H NMR and ^13C NMR spectra were taken on a 400 MHz Varian Unity Inova spectrophotometer instrument. ^1H and ^13C NMR spectra were recorded in CDCl3, and chemical shifts (5) are given in ppm relative to solvent peaks (at 7.24 ppm for ^1H spectra and at 77.3 for ^13C spectra) as internal standard. UV spectra were taken on a Hewlett-Packard 8452A Diode Array UV-visible spectrophotometer. Fluorescence spectra were recorded on a Spex Fluorolog 1681 0.22 m steady-state fluorometer. Fluorescence quantum yields of BODIPY dyes and polymers were measured in methylene chloride and calculated by using fluorescein excited at 490 nm in 0.1 N NaOH as the reference (its quantum efficiency of 85%). Fluorescence lifetimes were measured on a GL-3300 Nitrogen Laser laserstrobe PTI instrument and analyzed using FeliX32 software.
^1H NMR and ^13C NMR spectra were taken on a 400 MHz Varian Unity Inova spectrophotometer instrument. ^1H and ^13C NMR spectra were recorded in CDCl3, chemical shifts (δ) are given in ppm relative to solvent peaks (^1H: δ 7.26; ^13C: δ 77.3) as internal standard. UV spectra were taken on a Hewlett Packard 8452A Diode Array UV-visible spectrophotometer. Fluorescence spectra were recorded on a Spex Fluorolog 1681 0.22 m steady-state fluorometer. Fluorescence quantum yields of BODIPY dyes and polymers were measured in methylene chloride and DMF, and calculated by using fluorescein excited at 490 nm in 0.1 N NaOH as the reference quantum efficiency (φn=85%).^30,31 Molecular weights of the polymers were determined by gel permeation chromatography (GPC) by using a Waters Associates Model 6000A liquid chromatograph. Three American Polymer Standards Corp. Ultrastyragel columns in series with porosity indices of 10^3, 10^4, and 10^5 Å were used and housed in an oven thermostated at 30° C. Mobile phase was HPLC grade THF which was filtered and degassed by vacuum filtration through a 0.5 μm fluoropore filter prior to use. The polymers were detected by a Waters Model 440 ultraviolet absorbance detector at a wavelength of 254 nm and a Waters Model 2410 refractive index detector. Molecular weights were measured relative to polystyrene standards. […]

[2] = Fluorescence lifetime measurement; type: physicochemical
Procedure: as §1
^1H NMR and ^13C NMR spectra were taken on a 400 MHz Varian Unity Inova spectrophotometer instrument. ^1H and ^13C NMR spectra were recorded in CDCl3, and chemical shifts (δ) are given in ppm relative to solvent peaks (^1H, δ 7.26; ^13C, δ 77.3) as internal standard. UV spectra were taken on a Hewlett-Packard 8452A Diode Array UV-visible spectrophotometer. Fluorescence spectra were recorded on a Spex Fluorolog 1681 0.22 m steady-state fluorometer. Fluorescence quantum yields of BODIPY dyes and polymers were measured in methylene chloride and calculated by using fluorescein exCIted at 490 nm in 0.1 N NaOH as the reference (quantum effiCIency, cPn=85%). Fluorescence lifetimes were measured on a 010-3300 Nitrogen Laser laserstrobe PTI instrument and analyzed using FeliX32 software. Molecular weights of the polymers were determined by gel permeation chromatography (OPC) by using a Waters AssoCIates model 6000A liquid chromatograph. Three American Polymer Standards Corp. ultrastyragel columns in series with porosity indices of 103, 104, and 105 A were used and housed in an oven thermostatted at 30° C. The mobile phase was HPLC grade THF which was filtered and degassed by vacuum filtration through a 0.5, urn fluoropore filter prior to use. The polymers were detected by a Waters Model 440 ultraviolet absorbance detector at a wavelength of 254 nm and a Waters Model 2410 refractive index detector. Molecular weights were determined relative to polystyrene standards.

[3] = methylene chloride solution (Table 9, Example 13)
[4] = methylene chloride solution (Table 10, Example 14)
[5] = fluorescein standard (Table 10, Example 14)
[6] = fluorescein standard (Table 9, Example 13)

Row | Absorption maxima [1, 3] [nm] | Stokes shift [1, 3] [nm] | Absorption maxima [1, 4] [nm] | Emission maxima [1, 4] [nm] | Quantum yield [1, 5] [%] | Fluorescence lifetime [2, 3] [ns] | Fluorescence lifetime [2, 4] [ns] | Emission maxima [1, 3] [nm] | Quantum yield [1, 6] [%] | Structure (SMILES)
1 | 555 | 15 | 554 | 570 | 79 | 4.6 | 5.2 | – | – | CCCCCCCCCCCCOc1ccc(C2=C3C(C)=C(C#C[Si](C)(C)C)C(C)=[N+]3[B-](F)(F)n3c(C)c(C#C[Si](C)(C)C)c(C)c32)cc1OCCCCCCCCCCCC [Compound 5b]
2 | 556 | 14 | – | – | – | 4.4 | – | 570 | – | CCCCCCCCCCCCOc1cc(C2=C3C(C)=C(C#C[Si](C)(C)C)C(C)=[N+]3[B-](F)(F)n3c(C)c(C#C[Si](C)(C)C)c(C)c32)cc(OCCCCCCCCCCCC)c1OCCCCCCCCCCCC [Compound 5c]
3 | 539 | 12 | 538 | 552 | 63 | 3.6 | 4.2 | 551 | – | C#CC1=C(C)C2=C(c3ccc(OCCCCCCCCCCCC)cc3)c3c(C)c(C#C)c(C)n3[B-](F)(F)[N+]2=C1C [Compound 6a]
4 | 535 | 15 | – | – | – | 0.19 | – | 550 | 2.3 | CCCCCCCCCCCCOc1cc(C2=C3C(C)=C(I)C(C)=[N+]3[B-](F)(F)n3c(C)c(I)c(C)c32)cc(OCCCCCCCCCCCC)c1OCCCCCCCCCCCC [Compound 4c]
5 | 540 | 12 | 539 | 553 | 67 | 3.9 | 5.9 | 5.52 | – | C#CC1=C(C)C2=C(c3ccc(OCCCCCCCCCCCC)c(OCCCCCCCCCCCC)c3)c3c(C)c(C#C)c(C)n3[B-](F)(F)[N+]2=C1C [Compound 6b]
6 | 501 | 8 | 501 | 510 | 76 | 3.9 | 3.8 | 509 | – | CCCCCCCCCCCCOc1ccc(C2=C3C(C)=CC(C)=[N+]3[B-](F)(F)n3c(C)cc(C)c32)cc1 [Compound 3a]
7 | 534 | 15 | 534 | 549 | 5.8 | 0.15 | 0.08 | 549 | 2.7 | CCCCCCCCCCCCOc1ccc(C2=C3C(C)=C(I)C(C)=[N+]3[B-](F)(F)n3c(C)c(I)c(C)c32)cc1OCCCCCCCCCCCC [Compound 4b]
8 | 503 | 9 | – | – | – | 3.2 | – | 511 | – | CCCCCCCCCCCCOc1cc(C2=C3C(C)=CC(C)=[N+]3[B-](F)(F)n3c(C)cc(C)c32)cc(OCCCCCCCCCCCC)c1OCCCCCCCCCCCC [Compound 3c]
9 | 533 | 15 | 533 | 548 | 5.8 | 0.21 | 0.13 | 548 | 2.3 | CCCCCCCCCCCCOc1ccc(C2=C3C(C)=C(I)C(C)=[N+]3[B-](F)(F)n3c(C)c(I)c(C)c32)cc1 [Compound 4a]
